Measurements reported in ChEMBL document CHEMBL5505949, “Synthesis and clinical application of small-molecule inhibitors of Janus kinase” (Eur J Med Chem, 2023).

How the values were obtained:
[1] = target: Tyrosine-protein kinase JAK2 (Homo sapiens, UniProt O60674, V617F); test: Inhibition of JAK2 V617F mutant (unknown origin)
[2] = target: T1, Tyrosine-protein kinase JAK2 (Homo sapiens, UniProt O60674); test: Inhibition of wild type JAK2 (unknown origin)
[3] = target: T1, Tyrosine-protein kinase JAK2; test: Inhibition of JAK2 (unknown origin)
[4] = target: T2, Tyrosine-protein kinase JAK3 (Homo sapiens, UniProt P52333); test: Inhibition of JAK3 (unknown origin)
T2 sequence (P52333 whole entry): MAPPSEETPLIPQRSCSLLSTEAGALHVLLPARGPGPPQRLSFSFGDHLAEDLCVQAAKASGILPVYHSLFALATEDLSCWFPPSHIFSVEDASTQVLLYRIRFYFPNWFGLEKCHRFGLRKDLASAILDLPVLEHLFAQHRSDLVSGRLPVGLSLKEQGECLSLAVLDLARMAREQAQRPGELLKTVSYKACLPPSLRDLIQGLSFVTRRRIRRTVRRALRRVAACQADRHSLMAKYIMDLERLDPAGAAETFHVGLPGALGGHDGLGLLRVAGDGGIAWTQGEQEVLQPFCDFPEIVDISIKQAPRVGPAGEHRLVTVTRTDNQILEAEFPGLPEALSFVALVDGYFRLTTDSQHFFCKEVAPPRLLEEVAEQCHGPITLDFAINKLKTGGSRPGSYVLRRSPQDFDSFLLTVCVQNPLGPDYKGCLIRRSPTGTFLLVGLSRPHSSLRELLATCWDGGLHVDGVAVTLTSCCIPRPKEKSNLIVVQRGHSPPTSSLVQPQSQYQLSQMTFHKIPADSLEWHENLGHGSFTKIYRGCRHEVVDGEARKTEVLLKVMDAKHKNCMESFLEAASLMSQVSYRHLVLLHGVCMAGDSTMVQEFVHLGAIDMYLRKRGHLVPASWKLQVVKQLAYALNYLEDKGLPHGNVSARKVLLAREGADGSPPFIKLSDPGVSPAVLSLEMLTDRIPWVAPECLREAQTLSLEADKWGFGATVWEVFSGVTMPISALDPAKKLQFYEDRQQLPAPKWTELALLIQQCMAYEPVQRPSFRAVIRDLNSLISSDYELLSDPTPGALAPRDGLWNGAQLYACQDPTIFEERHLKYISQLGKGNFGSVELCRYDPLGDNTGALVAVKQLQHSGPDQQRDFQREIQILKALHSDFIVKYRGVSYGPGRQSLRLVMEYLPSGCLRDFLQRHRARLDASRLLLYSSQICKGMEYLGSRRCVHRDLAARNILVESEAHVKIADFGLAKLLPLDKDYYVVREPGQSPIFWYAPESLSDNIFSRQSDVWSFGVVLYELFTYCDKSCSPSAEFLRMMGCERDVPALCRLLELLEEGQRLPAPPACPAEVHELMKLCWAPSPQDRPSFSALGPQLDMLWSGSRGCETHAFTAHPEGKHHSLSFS

T1 sequence (O60674 whole entry): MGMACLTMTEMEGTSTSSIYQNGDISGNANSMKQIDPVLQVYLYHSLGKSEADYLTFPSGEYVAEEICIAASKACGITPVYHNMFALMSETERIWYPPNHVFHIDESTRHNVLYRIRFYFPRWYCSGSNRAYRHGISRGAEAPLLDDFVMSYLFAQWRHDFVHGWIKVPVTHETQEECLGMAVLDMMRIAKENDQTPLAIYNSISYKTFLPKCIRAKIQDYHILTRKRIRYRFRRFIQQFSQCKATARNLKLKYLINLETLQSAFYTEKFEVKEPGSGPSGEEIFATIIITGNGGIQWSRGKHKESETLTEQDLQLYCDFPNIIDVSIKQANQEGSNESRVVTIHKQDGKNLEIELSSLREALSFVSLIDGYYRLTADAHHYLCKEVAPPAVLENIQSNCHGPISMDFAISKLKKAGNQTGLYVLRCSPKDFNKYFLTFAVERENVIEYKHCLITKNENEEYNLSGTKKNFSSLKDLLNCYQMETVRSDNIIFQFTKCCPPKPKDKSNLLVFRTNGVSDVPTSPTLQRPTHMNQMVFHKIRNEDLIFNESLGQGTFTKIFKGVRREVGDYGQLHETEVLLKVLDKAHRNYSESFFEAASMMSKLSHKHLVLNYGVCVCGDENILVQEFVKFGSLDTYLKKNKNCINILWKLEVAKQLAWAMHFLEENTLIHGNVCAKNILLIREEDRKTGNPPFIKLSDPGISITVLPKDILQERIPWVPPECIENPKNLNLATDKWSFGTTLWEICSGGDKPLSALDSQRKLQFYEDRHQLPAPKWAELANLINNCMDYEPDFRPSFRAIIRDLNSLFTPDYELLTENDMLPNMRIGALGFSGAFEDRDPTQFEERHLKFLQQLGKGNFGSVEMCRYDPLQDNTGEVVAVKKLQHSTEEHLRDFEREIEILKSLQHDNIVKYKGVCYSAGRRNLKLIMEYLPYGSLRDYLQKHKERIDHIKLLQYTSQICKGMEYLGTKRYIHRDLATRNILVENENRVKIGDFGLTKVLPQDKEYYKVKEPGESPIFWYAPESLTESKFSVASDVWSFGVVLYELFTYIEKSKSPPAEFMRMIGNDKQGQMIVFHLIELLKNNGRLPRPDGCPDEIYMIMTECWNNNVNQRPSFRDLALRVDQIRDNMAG
Chain of Tyrosine-protein kinase JAK2 (Homo sapiens, UniProt O60674, V617F) (O60674 whole entry V617F): as the sequence (O60674 whole entry) above, with V617F counted along it

SMILES | IC50 [1] [nM] | IC50 [2] [nM] | IC50 [3] [nM] | IC50 [4] [nM]
Cc1cc(Nc2cc(CN3CCOCC3)c3nc(C)c(Cc4ccc(Cl)cc4F)n3n2)n[nH]1 [GANDOTINIB] | 55 | 2260 | 68 | –
COc1nn(C)cc1Nc1nccc(-c2c[nH]c3c(NC(=O)[C@@H](C)N4CCN(C)CC4)cccc23)n1 [GOLIDOCITINIB] | – | – | 14700 | 30000
